The target of this assay is T1, CGRP receptor (CLR-RAMP1) in human cardiomyocytes (HCMs) (Homo sapiens, UniProt O60894+Q16602).
T1 construct: primary human cardiomyocytes (HCMs) since these cells only expressed CLR and RAMP1; host or cells: primary human cardiomyocytes (HCMs)
Nature of the assay: cAMP accumulation in HCMs. In kind it is cell-based. The note with it: HCM, 30 min, relative to 100 μM forskolin, mean ± SEM. The method, then: Data are analysed using a three-parameter non-linear regression curve or the operational model of receptor agonism. g, h Signalling bias plots were calculated as ∆Log(τ/KA) (g) or ∆∆Log(τ/KA) (h) for each agonist and for each signalling pathway. […] All data represent mean ± SEM for n repeats.
All primary cell lines were cultured as above. On the day of the experiment media was removed and cells washed with PBS, before being dissociated with Trypsin-EDTA 0.05% (Gibco, UK) and then resuspended in PBS/BSA (0.1%) (Sigma, UK). […] Plates were incubated for a further 60 min (room temperature) and then read on a plate reader (Mithras LB 940 microplate reader (Berthold technologies, Germany)). […]
All sample sizes were determined, and data analysed, in accordance with the guidelines described by Curtis M et al.[65]. […] Statistical differences were analysed using one-way ANOVA followed by Dunnett’s post-hoc (for comparisons amongst more than two groups) or unpaired Student’s t test with Welch’s correction (for comparison between two groups). […] Having obtained values for τ and KA these were then used to quantify signalling bias as the change in Log(τ/KA)[19],[28]. […]

T1 sequence (Q16602 23-461): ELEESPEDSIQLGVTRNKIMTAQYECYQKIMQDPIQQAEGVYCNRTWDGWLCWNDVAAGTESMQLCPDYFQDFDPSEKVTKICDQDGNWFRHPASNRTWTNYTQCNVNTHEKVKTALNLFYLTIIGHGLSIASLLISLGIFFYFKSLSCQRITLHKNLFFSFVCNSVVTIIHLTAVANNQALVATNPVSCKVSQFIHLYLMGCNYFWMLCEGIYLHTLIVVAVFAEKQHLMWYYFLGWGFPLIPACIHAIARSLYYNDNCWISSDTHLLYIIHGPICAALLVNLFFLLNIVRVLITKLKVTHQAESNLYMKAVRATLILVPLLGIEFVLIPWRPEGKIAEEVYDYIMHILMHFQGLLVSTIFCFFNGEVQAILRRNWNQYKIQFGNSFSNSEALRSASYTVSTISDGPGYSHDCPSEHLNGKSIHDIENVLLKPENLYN
T1 sequence (O60894 27-148): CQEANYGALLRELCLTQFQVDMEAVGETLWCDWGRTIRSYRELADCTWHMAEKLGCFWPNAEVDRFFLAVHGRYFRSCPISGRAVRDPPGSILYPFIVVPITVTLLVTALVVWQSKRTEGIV

With `CC[C@H](C)[C@H](NC(=O)[C@H](CCC(N)=O)NC(=O)[C@H](Cc1c[nH]cn1)NC(=O)[C@H](C)NC(=O)[C@H](CC(C)C)NC(=O)[C@H](CCCCN)NC(=O)[C@H](CCC(N)=O)NC(=O)[C@@H](NC(=O)[C@@H](NC(=O)[C@@H]1CSSC[C@H](NC(=O)CNC(=O)[C@H](Cc2ccccc2)NC(=O)[C@H](CO)NC(=O)[C@H](CCCNC(=N)N)NC(=O)[C@H](CC(C)C)NC(=O)CNC(=O)[C@H](CCC(N)=O)NC(=O)[C@H](Cc2ccccc2)NC(=O)[C@H](CC(N)=O)NC(=O)[C@H](CC(N)=O)NC(=O)[C@H](CCSC)NC(=O)[C@H](CO)NC(=O)[C@H](CCC(N)=O)NC(=O)[C@H](CCCNC(=N)N)NC(=O)[C@@H](N)Cc2ccc(O)cc2)C(=O)N[C@@H](CCCNC(=N)N)C(=O)N[C@@H](Cc2ccccc2)C(=O)NCC(=O)N[C@@H]([C@@H](C)O)C(=O)N1)[C@@H](C)O)C(C)C)C(=O)N[C@@H](Cc1ccc(O)cc1)C(=O)N[C@@H](CCC(N)=O)C(=O)N[C@@H](Cc1ccccc1)C(=O)N[C@H](C(=O)N[C@@H](CC(=O)O)C(=O)N[C@@H](CCCCN)C(=O)N[C@@H](CC(=O)O)C(=O)N[C@@H](CCCCN)C(=O)N[C@@H](CC(=O)O)C(=O)N[C@@H](CC(N)=O)C(=O)N[C@H](C(=O)N[C@@H](C)C(=O)N1CCC[C@H]1C(=O)N[C@@H](CCCNC(=N)N)C(=O)N[C@@H](CO)C(=O)N[C@@H](CCCCN)C(=O)N[C@H](C(=O)N[C@@H](CO)C(=O)N1CCC[C@H]1C(=O)N[C@@H](CCC(N)=O)C(=O)NCC(=O)N[C@@H](Cc1ccc(O)cc1)C(N)=O)[C@@H](C)CC)C(C)C)[C@@H](C)O` [AM, adrenomedullin], the Emax (in general, the size of the effect at its maximum, as opposed to the concentration needed) was determined as 63 ± 3.14%.

The values are drawn from publication PMC8222276 (Communications Biology, 2021).
